Laboratory results as given in ChEMBL document CHEMBL1201862, “PubChem BioAssay data set” (2004).
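Dose response: 5 concentrations. Exposure: 48 h. Format: 96-well plates. Endpoint: linear interpolation; highest concentration if not reached. The concentration for 50% growth inhibition is given as GI50.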 The source made the active and inactive calls. No stated cut-off is given here; in the data, active = GI50 up to about 1.1 µM and inactive = higher.

Tests used:
Experiment in all cases: NCI anticancer screen, dose series, 48 h
786-0 = test system: 786-0
A498 = test system: A498
A549 = test system: A549
ACHN = test system: ACHN
BT-549 = test system: BT-549
CAKI-1 = test system: CAKI-1
CCRF-CEM = test system: CCRF-CEM
COLO 205 = test system: COLO 205
DU-145 = test system: DU-145
EKVX = test system: EKVX
HCC 2998 = test system: HCC 2998
HCT-116 = test system: HCT-116
HCT-15 = test system: HCT-15
HL-60 = test system: HL-60
HOP-62 = test system: HOP-62
HOP-92 = test system: HOP-92
HT-29 = test system: HT-29
Hs-578T = test system: Hs-578T
IGROV-1 = test system: IGROV-1
K562 = test system: K562
KM12 = test system: KM12
LOX IMVI = test system: LOX IMVI
M14 = test system: M14
MDA-MB-231 = test system: MDA-MB-231
MDA-MB-435 = test system: MDA-MB-435
MOLT-4 = test system: MOLT-4
Malme-3M = test system: Malme-3M
NCI-H226 = test system: NCI-H226
NCI-H23 = test system: NCI-H23
NCI-H522 = test system: NCI-H522
NCI/ADR-RES = test system: NCI/ADR-RES
OVCAR-3 = test system: OVCAR-3
OVCAR-4 = test system: OVCAR-4
OVCAR-5 = test system: OVCAR-5
OVCAR-8 = test system: OVCAR-8
PC-3 = test system: PC-3
RPMI-8226 = test system: RPMI-8226
RXF 393 = test system: RXF 393
SF-268 = test system: SF-268
SF-295 = test system: SF-295
SF-539 = test system: SF-539
SK-MEL-28 = test system: SK-MEL-28
SK-MEL-2 = test system: SK-MEL-2
SK-MEL-5 = test system: SK-MEL-5
SK-OV-3 = test system: SK-OV-3
SN12C = test system: SN12C
SNB-19 = test system: SNB-19
SNB-75 = test system: SNB-75
SR = test system: SR
SW-620 = test system: SW-620
TK-10 = test system: TK-10
U-251 = test system: U-251
UACC-257 = test system: UACC-257
UACC-62 = test system: UACC-62
UO-31 = test system: UO-31
MCF7 = test system: MCF7
MDA-N = test system: MDA-N
NCI-H460 = test system: NCI-H460
T47D = test system: T47D

## Cc1[nH]nc(C(=O)N/N=C/c2ccccc2Cl)c1/N=N\N(C)C
786-0
  GI50: 5040 nM (inactive)
A498
  GI50: 2190 nM (inactive)
A549
  GI50: > 100000 nM (inactive)
ACHN
  GI50: > 54600 nM (inactive)
BT-549
  GI50: 2990 nM (inactive)
CAKI-1
  GI50: > 32900 nM (inactive)
CCRF-CEM
  GI50: 2590 nM (inactive)
COLO 205
  GI50: > 100000 nM (inactive)
DU-145
  GI50: 4280 nM (inactive)
EKVX
  GI50: 12400 nM (inactive)
HCC 2998
  GI50: > 100000 nM (inactive)
HCT-116
  GI50: 4050 nM (inactive)
HCT-15
  GI50: > 100000 nM
HL-60
  GI50: 4820 nM (inactive)
HOP-62
  GI50: 1340 nM (inactive)
HOP-92
  GI50: > 23900 nM (inactive)
HT-29
  GI50: > 53300 nM (inactive)
Hs-578T
  GI50: 2090 nM (inactive)
IGROV-1
  GI50: 40800 nM (inactive)
K562
  GI50: 802 nM (active)
KM12
  GI50: 2860 nM (inactive)
LOX IMVI
  GI50: > 76400 nM (inactive)
M14
  GI50: > 100000 nM (inactive)
MDA-MB-231
  GI50: > 43500 nM (inactive)
MDA-MB-435
  GI50: > 100000 nM (inactive)
MOLT-4
  GI50: 2200 nM (inactive)
Malme-3M
  GI50: > 39400 nM (inactive)
NCI-H226
  GI50: > 100000 nM (inactive)
NCI-H23
  GI50: > 25600 nM (inactive)
NCI-H522
  GI50: > 61400 nM (inactive)
NCI/ADR-RES
  GI50: 6100 nM (inactive)
OVCAR-3
  GI50: 20800 nM (inactive)
OVCAR-4
  GI50: 14900 nM (inactive)
OVCAR-5
  GI50: 18000 nM (inactive)
OVCAR-8
  GI50: 7980 nM (inactive)
PC-3
  GI50: 5700 nM (inactive)
RPMI-8226
  GI50: 2510 nM (inactive)
RXF 393
  GI50: > 37900 nM (inactive)
SF-268
  GI50: > 100000 nM (inactive)
SF-295
  GI50: > 54000 nM (inactive)
SF-539
  GI50: 5560 nM (inactive)
SK-MEL-28
  GI50: > 100000 nM (inactive)
SK-MEL-2
  GI50: > 100000 nM (inactive)
SK-MEL-5
  GI50: 14600 nM (inactive)
SK-OV-3
  GI50: > 100000 nM (inactive)
SN12C
  GI50: > 54300 nM (inactive)
SNB-19
  GI50: > 100000 nM (inactive)
SNB-75
  GI50: > 31000 nM (inactive)
SR
  GI50: 171 nM (active)
SW-620
  GI50: > 33000 nM (inactive)
TK-10
  GI50: 56600 nM (inactive)
U-251
  GI50: 14800 nM (inactive)
UACC-257
  GI50: > 84700 nM (inactive)
UACC-62
  GI50: > 100000 nM (inactive)
UO-31
  GI50: > 57800 nM (inactive)

## CN(C)c1ccc(/C=c2/c3ccccc3n3c2cc(C24CC5CC(CC(C5)C2)C4)[n+]3C)cc1
786-0
  GI50: 126 nM (active)
A498
  GI50: 314 nM (active)
A549
  GI50: 205 nM (active)
ACHN
  GI50: 230 nM (active)
BT-549
  GI50: 245 nM (active)
CAKI-1
  GI50: 234 nM (active)
CCRF-CEM
  GI50: 117 nM (active)
COLO 205
  GI50: 87.7 nM (active)
DU-145
  GI50: 311 nM (active)
EKVX
  GI50: 344 nM (active)
HCC 2998
  GI50: 353 nM (active)
HCT-116
  GI50: 82.8 nM (active)
HCT-15
  GI50: 446 nM
HL-60
  GI50: 231 nM (active)
HOP-62
  GI50: 411 nM (active)
HOP-92
  GI50: 366 nM (active)
HT-29
  GI50: 299 nM (active)
IGROV-1
  GI50: 127 nM (active)
K562
  GI50: 99.8 nM (active)
KM12
  GI50: 156 nM (active)
LOX IMVI
  GI50: 326 nM (active)
M14
  GI50: 320 nM (active)
MCF7
  GI50: 61.5 nM (active)
MDA-MB-231
  GI50: 281 nM (active)
MDA-MB-435
  GI50: 176 nM (active)
MDA-N
  GI50: 330 nM (active)
MOLT-4
  GI50: 998 nM (active)
Malme-3M
  GI50: 527 nM (active)
NCI-H226
  GI50: 396 nM (active)
NCI-H23
  GI50: 261 nM (active)
NCI-H460
  GI50: 313 nM (active)
NCI-H522
  GI50: 92.3 nM (active)
NCI/ADR-RES
  GI50: 1520 nM (inactive)
OVCAR-3
  GI50: 476 nM (active)
OVCAR-4
  GI50: 337 nM (active)
OVCAR-5
  GI50: 409 nM (active)
OVCAR-8
  GI50: 129 nM (active)
PC-3
  GI50: 125 nM (active)
RPMI-8226
  GI50: 53 nM (active)
SF-268
  GI50: 555 nM (active)
SF-295
  GI50: 320 nM (active)
SF-539
  GI50: 123 nM (active)
SK-MEL-28
  GI50: 643 nM (active)
SK-MEL-2
  GI50: 313 nM (active)
SK-MEL-5
  GI50: 158 nM (active)
SK-OV-3
  GI50: 377 nM (active)
SN12C
  GI50: 324 nM (active)
SNB-19
  GI50: 266 nM (active)
SNB-75
  GI50: 394 nM (active)
SW-620
  GI50: 148 nM (active)
T47D
  GI50: 124 nM (active)
TK-10
  GI50: 390 nM (active)
U-251
  GI50: 66.4 nM (active)
UACC-257
  GI50: 251 nM (active)
UACC-62
  GI50: 345 nM (active)
UO-31
  GI50: 290 nM (active)
